According to PubChem BioAssay AID2060882 (Molecular Pharmacology Branch, DTP, NCI, 2025):

Test system: 898857-211-R-J1-PDC complex spheroids, growth % test/control
Test: Anticancer human tumor 898857-211-R-J1-PDC patient-derived melanoma cell line growth inhibition [RAS]
Settings: for IC50: curve of first compound; for viability, T/C: stronger effect = lower value
In short: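 Agents were tested in combination matrices in half-log decrements from a top concentration at or near clinical Cmax (10 microM if undetermined). Targets were multi-cell spheroids of tumour lines plus HUVEC and MSC stromal cells.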
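Also: spheroids exposed to compound for seven days before readout.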
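For viability, T/C in this document: 100% = DMSO vehicle control wells.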

O=C(c1ccc(F)c(F)c1Nc1ccc(I)cc1F)N1CC(O)([C@@H]2CCCCN2)C1 + CCn1c(-c2cc(N3CCN(C)CC3)cnc2C(C)OC)c2c3cc(ccc31)-c1csc(n1)CC(NC(=O)C1CC1C)C(=O)N1CCCC(N1)C(=O)OCC(C)(C)C2
IC50 (second compound 0.000949 µM): < 3.16 nM
IC50 (second compound 0.003 µM): < 3.16 nM
IC50 (second compound 0.00949 µM): < 3.16 nM
IC50 (second compound 0.03 µM): < 3.16 nM
IC50 (second compound 0.0949 µM): < 3.16 nM
IC50 (second compound 0.3 µM): < 3.16 nM
viability, T/C (second compound 0.000949 µM, first compound 0.00316 µM): 39.8%
viability, T/C (second compound 0.000949 µM, first compound 0.01 µM): 24.2%
viability, T/C (second compound 0.000949 µM, first compound 0.0316 µM): 16.8%
viability, T/C (second compound 0.000949 µM, first compound 0.1 µM): 13.9%
viability, T/C (second compound 0.000949 µM, first compound 0.316 µM): 13%
viability, T/C (second compound 0.000949 µM, first compound 1 µM): 9.63%
viability, T/C (second compound 0.003 µM, first compound 0.00316 µM): 33.1%
viability, T/C (second compound 0.003 µM, first compound 0.01 µM): 21.3%
viability, T/C (second compound 0.003 µM, first compound 0.0316 µM): 17.5%
viability, T/C (second compound 0.003 µM, first compound 0.1 µM): 12.4%
viability, T/C (second compound 0.003 µM, first compound 0.316 µM): 10.3%
viability, T/C (second compound 0.003 µM, first compound 1 µM): 6.63%
viability, T/C (second compound 0.00949 µM, first compound 0.00316 µM): 32%
viability, T/C (second compound 0.00949 µM, first compound 0.01 µM): 20.5%
viability, T/C (second compound 0.00949 µM, first compound 0.0316 µM): 17.8%
viability, T/C (second compound 0.00949 µM, first compound 0.1 µM): 14.2%
viability, T/C (second compound 0.00949 µM, first compound 0.316 µM): 11.3%
viability, T/C (second compound 0.00949 µM, first compound 1 µM): 3.23%
viability, T/C (second compound 0.03 µM, first compound 0.00316 µM): 24.2%
viability, T/C (second compound 0.03 µM, first compound 0.01 µM): 20.7%
viability, T/C (second compound 0.03 µM, first compound 0.0316 µM): 17.8%
viability, T/C (second compound 0.03 µM, first compound 0.1 µM): 12.8%
viability, T/C (second compound 0.03 µM, first compound 0.316 µM): 7.8%
viability, T/C (second compound 0.03 µM, first compound 1 µM): 2.22%
viability, T/C (second compound 0.0949 µM, first compound 0.00316 µM): 24.6%
viability, T/C (second compound 0.0949 µM, first compound 0.01 µM): 20.2%
viability, T/C (second compound 0.0949 µM, first compound 0.0316 µM): 14.7%
viability, T/C (second compound 0.0949 µM, first compound 0.1 µM): 10.4%
viability, T/C (second compound 0.0949 µM, first compound 0.316 µM): 3.52%
viability, T/C (second compound 0.0949 µM, first compound 1 µM): 1.46%
viability, T/C (second compound 0.3 µM, first compound 0.00316 µM): 24.1%
viability, T/C (second compound 0.3 µM, first compound 0.01 µM): 19.1%
viability, T/C (second compound 0.3 µM, first compound 0.0316 µM): 13.3%
viability, T/C (second compound 0.3 µM, first compound 0.1 µM): 8.51%
viability, T/C (second compound 0.3 µM, first compound 0.316 µM): 3.03%
viability, T/C (second compound 0.3 µM, first compound 1 µM): 1.17%
